What was measured:
Assay in all cases: Kinase profiling
Format in all cases: biochemical
ALK1(h) = target: T1, ALK1(h) (Homo sapiens, UniProt P37023)
T1 construct: purchased Eurofins Cerep SA (KinaseProfiler)
Experimental: (§1) 380 kinases inhibitory activities of SKLB-D18 were conducted by Eurofins Cerep SA. The result was illustrated by kinase tree (http://www.kinhub.org/kinmap/).

B-Raf(h) = target: T2, B-Raf(h) (Homo sapiens, UniProt P15056)
T2 construct: purchased Eurofins Cerep SA (KinaseProfiler)
Experimental: as §1

Blk(h) = target: T3, Blk(h) (Homo sapiens, UniProt P51451)
T3 construct: purchased Eurofins Cerep SA (KinaseProfiler)
Experimental: as §1

CDK1/cyclinB(h) = target: T4, CDK1/cyclinB(h) (Homo sapiens, UniProt P06493)
T4 construct: purchased Eurofins Cerep SA (KinaseProfiler)
Experimental: as §1

CDK2/cyclinE(h) = target: T5, CDK2/cyclinE(h) (Homo sapiens, UniProt P24941)
T5 construct: purchased Eurofins Cerep SA (KinaseProfiler)
Experimental: as §1

CDKL1(h) = target: T6, CDKL1(h) (Homo sapiens, UniProt Q00532)
T6 construct: purchased Eurofins Cerep SA (KinaseProfiler)
Experimental: as §1

CRIK(h) = target: T7, CRIK(h) (Homo sapiens, UniProt O14578)
T7 construct: purchased Eurofins Cerep SA (KinaseProfiler)
T7 sequence (O14578 whole entry): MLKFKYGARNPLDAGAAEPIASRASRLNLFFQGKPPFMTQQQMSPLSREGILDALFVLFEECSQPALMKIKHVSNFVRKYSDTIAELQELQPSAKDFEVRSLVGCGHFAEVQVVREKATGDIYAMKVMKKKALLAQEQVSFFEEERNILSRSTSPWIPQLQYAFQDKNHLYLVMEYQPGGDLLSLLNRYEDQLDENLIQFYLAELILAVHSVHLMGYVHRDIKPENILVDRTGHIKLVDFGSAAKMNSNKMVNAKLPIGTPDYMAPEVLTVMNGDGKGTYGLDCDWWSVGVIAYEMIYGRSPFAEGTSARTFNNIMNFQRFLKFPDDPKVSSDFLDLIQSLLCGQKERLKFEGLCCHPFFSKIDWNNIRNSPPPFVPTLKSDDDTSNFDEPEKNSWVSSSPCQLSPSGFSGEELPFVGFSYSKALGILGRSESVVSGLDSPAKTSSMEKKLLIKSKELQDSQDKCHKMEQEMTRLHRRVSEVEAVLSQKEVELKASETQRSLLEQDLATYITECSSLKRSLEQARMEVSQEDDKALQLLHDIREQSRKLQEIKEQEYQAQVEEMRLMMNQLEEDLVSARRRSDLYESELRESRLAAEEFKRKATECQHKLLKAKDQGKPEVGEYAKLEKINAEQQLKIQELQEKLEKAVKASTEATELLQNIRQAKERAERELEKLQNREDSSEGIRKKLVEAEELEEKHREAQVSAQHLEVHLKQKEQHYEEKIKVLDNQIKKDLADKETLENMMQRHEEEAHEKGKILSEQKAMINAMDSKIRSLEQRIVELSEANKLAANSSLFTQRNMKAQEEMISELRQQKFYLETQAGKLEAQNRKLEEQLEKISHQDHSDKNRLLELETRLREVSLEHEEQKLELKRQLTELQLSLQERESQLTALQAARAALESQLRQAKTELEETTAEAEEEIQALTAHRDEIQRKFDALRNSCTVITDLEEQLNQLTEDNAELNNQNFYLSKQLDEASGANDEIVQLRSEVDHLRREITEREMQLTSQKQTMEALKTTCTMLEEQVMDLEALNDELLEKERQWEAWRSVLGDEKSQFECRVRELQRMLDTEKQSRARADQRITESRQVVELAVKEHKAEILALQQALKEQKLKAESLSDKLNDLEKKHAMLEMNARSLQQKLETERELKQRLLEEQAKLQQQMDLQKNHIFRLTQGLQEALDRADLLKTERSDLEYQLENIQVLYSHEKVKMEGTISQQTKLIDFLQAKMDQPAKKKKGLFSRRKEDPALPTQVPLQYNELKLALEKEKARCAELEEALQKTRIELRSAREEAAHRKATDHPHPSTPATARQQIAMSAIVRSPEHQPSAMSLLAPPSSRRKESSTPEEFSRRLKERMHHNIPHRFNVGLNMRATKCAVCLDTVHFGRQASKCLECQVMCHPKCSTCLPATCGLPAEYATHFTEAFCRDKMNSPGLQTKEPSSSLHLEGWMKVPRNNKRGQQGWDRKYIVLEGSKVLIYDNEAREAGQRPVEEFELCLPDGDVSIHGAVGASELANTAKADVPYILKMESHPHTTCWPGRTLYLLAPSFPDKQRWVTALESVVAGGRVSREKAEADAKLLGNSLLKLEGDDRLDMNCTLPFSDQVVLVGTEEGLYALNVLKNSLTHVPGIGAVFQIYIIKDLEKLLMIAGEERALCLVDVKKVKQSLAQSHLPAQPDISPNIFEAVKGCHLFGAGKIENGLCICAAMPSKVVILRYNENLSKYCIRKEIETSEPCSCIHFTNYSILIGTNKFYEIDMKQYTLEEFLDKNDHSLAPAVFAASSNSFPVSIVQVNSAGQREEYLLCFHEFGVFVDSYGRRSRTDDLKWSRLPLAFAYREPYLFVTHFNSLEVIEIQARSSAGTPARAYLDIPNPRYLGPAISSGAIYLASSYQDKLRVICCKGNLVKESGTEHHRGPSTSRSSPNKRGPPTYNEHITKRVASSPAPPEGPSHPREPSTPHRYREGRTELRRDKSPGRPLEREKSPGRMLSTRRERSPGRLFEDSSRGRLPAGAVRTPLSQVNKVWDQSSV
Experimental: as §1

CaMKK2(h) = target: T8, CaMKK2(h) (Homo sapiens, UniProt Q96RR4)
T8 construct: purchased Eurofins Cerep SA (KinaseProfiler)
Experimental: as §1

DCAMKL2(h) = target: T9, DCAMKL2(h) (Homo sapiens, UniProt Q8N568)
T9 construct: purchased Eurofins Cerep SA (KinaseProfiler)
Experimental: as §1

DRAK2(h) = target: T10, DRAK2(h) (Homo sapiens, UniProt O94768)
T10 construct: purchased Eurofins Cerep SA (KinaseProfiler)
Experimental: as §1

ErbB2(h) = target: T11, ErbB2(h) (Homo sapiens, UniProt P04626)
T11 construct: purchased Eurofins Cerep SA (KinaseProfiler)
Experimental: as §1

FAK(h) = target: T12, FAK(h) (Homo sapiens, UniProt Q05397)
T12 construct: purchased Eurofins Cerep SA (KinaseProfiler)
Experimental: as §1

FGFR3(h) = target: T13, FGFR3(h) (Homo sapiens, UniProt P22607)
T13 construct: purchased Eurofins Cerep SA (KinaseProfiler)
Experimental: as §1

Fgr(h) = target: T14, Fgr(h) (Homo sapiens, UniProt P09769)
T14 construct: purchased Eurofins Cerep SA (KinaseProfiler)
Experimental: as §1

GCK(h) = target: T15, GCK(h) (Homo sapiens, UniProt Q12851)
T15 construct: purchased Eurofins Cerep SA (KinaseProfiler)
Experimental: as §1

GRK2(h) = target: T16, GRK2(h) (Homo sapiens, UniProt P25098)
T16 construct: purchased Eurofins Cerep SA (KinaseProfiler)
Experimental: as §1

GSK3α(h) = target: T17, GSK3α(h) (Homo sapiens, UniProt P49840)
T17 construct: purchased Eurofins Cerep SA (KinaseProfiler)
Experimental: as §1

HIPK1(h) = target: T18, HIPK1(h) (Homo sapiens, UniProt Q86Z02)
T18 construct: purchased Eurofins Cerep SA (KinaseProfiler)
Experimental: as §1

Hck(h) activated = target: T19, Hck(h) activated (Homo sapiens, UniProt P08631)
T19 construct: purchased Eurofins Cerep SA (KinaseProfiler)
Experimental: as §1

IGF-1R(h) = target: T20, IGF-1R(h) (Homo sapiens, UniProt P08069)
T20 construct: purchased Eurofins Cerep SA (KinaseProfiler)
Experimental: as §1

IGF-1R(h), activated = target: T21, IGF-1R(h), activated (Homo sapiens, UniProt P08069)
T21 construct: purchased Eurofins Cerep SA (KinaseProfiler)
Experimental: as §1

IKKε(h) = target: T22, IKKε(h) (Homo sapiens, UniProt Q14164)
T22 construct: purchased Eurofins Cerep SA (KinaseProfiler)
Experimental: as §1

IRE1(h) = target: T23, IRE1(h) (Homo sapiens, UniProt O75460)
T23 construct: purchased Eurofins Cerep SA (KinaseProfiler)
Experimental: as §1

IRR(h) = target: T24, IRR(h) (Homo sapiens, UniProt P14616)
T24 construct: purchased Eurofins Cerep SA (KinaseProfiler)
Experimental: as §1

LATS2(h) = target: T25, LATS2(h) (Homo sapiens, UniProt Q9NRM7)
T25 construct: purchased Eurofins Cerep SA (KinaseProfiler)
Experimental: as §1

LIMK1(h) = target: T26, LIMK1(h) (Homo sapiens, UniProt P53667)
T26 construct: purchased Eurofins Cerep SA (KinaseProfiler)
Experimental: as §1

MAPKAP-K3(h) = target: T27, MAPKAP-K3(h) (Homo sapiens, UniProt Q16644)
T27 construct: purchased Eurofins Cerep SA (KinaseProfiler)
Experimental: as §1

MEK2(h) = target: T28, MEK2(h) (Homo sapiens, UniProt P36507)
T28 construct: purchased Eurofins Cerep SA (KinaseProfiler)
Experimental: as §1

MLK4(h) = target: T29, MLK4(h) (Homo sapiens, UniProt Q5TCX8)
T29 construct: purchased Eurofins Cerep SA (KinaseProfiler)
Experimental: as §1

MRCKα(h) = target: T30, MRCKα(h) (Homo sapiens, UniProt Q5VT25)
T30 construct: purchased Eurofins Cerep SA (KinaseProfiler)
Experimental: as §1

[1] = target: T31, PI3 Kinase (p110a/p85a)(h) (Homo sapiens, UniProt P42336)
T31 construct: purchased Eurofins Cerep SA (KinaseProfiler)
T31 sequence (P42336 whole entry): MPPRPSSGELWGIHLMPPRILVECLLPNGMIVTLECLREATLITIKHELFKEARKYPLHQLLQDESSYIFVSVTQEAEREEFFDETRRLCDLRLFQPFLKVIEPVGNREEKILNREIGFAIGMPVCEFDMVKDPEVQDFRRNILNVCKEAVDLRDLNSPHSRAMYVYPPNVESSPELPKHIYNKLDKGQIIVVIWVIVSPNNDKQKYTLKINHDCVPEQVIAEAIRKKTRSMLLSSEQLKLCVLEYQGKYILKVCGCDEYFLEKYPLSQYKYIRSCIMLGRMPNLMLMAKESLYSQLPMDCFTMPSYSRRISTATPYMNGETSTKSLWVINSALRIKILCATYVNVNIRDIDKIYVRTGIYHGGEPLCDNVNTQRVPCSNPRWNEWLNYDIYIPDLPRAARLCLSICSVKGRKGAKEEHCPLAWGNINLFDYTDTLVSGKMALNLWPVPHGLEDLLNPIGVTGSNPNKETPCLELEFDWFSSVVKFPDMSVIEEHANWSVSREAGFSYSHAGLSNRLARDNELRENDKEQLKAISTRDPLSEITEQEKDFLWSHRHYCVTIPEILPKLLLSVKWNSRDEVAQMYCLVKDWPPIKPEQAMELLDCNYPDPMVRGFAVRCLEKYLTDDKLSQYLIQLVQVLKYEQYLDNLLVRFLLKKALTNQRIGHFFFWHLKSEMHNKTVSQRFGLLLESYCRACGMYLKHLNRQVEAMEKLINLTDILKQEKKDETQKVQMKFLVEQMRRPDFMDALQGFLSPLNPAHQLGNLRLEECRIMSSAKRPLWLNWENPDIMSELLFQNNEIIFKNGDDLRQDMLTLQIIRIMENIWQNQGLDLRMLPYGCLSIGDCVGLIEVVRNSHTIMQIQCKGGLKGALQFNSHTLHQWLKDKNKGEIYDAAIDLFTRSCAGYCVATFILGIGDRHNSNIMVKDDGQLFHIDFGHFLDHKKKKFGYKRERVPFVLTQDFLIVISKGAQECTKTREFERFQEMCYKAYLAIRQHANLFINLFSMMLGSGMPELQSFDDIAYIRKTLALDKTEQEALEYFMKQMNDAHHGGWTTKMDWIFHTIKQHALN
T31 sequence (P27986 whole entry partner): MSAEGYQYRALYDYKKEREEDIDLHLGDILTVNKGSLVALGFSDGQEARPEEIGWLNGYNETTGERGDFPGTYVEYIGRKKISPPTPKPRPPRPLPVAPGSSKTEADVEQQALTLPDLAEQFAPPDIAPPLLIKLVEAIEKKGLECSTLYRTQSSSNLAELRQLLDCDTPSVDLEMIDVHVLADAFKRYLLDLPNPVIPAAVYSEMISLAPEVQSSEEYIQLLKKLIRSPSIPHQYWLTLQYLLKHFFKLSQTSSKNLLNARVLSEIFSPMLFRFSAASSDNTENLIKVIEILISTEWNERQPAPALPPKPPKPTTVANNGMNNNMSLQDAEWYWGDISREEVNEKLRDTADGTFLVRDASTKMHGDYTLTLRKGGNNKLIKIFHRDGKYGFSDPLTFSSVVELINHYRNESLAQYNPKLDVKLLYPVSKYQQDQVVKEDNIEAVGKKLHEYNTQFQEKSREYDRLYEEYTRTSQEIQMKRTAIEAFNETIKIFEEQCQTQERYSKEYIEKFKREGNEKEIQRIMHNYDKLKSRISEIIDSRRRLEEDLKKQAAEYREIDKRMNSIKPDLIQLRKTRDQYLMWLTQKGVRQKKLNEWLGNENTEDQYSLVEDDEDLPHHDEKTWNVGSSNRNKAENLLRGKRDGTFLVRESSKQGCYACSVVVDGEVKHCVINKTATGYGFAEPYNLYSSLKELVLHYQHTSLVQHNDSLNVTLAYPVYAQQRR
Experimental: as §1

PKCβI(h) = target: T32, PKCβI(h) (Homo sapiens, UniProt P05771)
T32 construct: purchased Eurofins Cerep SA (KinaseProfiler)
Experimental: as §1

PKCι(h) = target: T33, PKCι(h) (Homo sapiens, UniProt P41743)
T33 construct: purchased Eurofins Cerep SA (KinaseProfiler)
Experimental: as §1

PhKγ2(h) = target: T34, PhKγ2(h) (Homo sapiens, UniProt P15735)
T34 construct: purchased Eurofins Cerep SA (KinaseProfiler)
Experimental: as §1

Pim-3(h) = target: T35, Pim-3(h) (Homo sapiens, UniProt Q86V86)
T35 construct: purchased Eurofins Cerep SA (KinaseProfiler)
Experimental: as §1

Ros(h) = target: T36, Ros(h) (Homo sapiens, UniProt P08922)
T36 construct: purchased Eurofins Cerep SA (KinaseProfiler)
Experimental: as §1

SAPK2b(h) = target: T37, SAPK2b(h) (Homo sapiens, UniProt Q15759)
T37 construct: purchased Eurofins Cerep SA (KinaseProfiler)
Experimental: as §1

SGK3(h) = target: T38, SGK3(h) (Homo sapiens, UniProt Q96BR1)
T38 construct: purchased Eurofins Cerep SA (KinaseProfiler)
Experimental: as §1

SLK(h) = target: T39, SLK(h) (Homo sapiens, UniProt Q9H2G2)
T39 construct: purchased Eurofins Cerep SA (KinaseProfiler)
T39 sequence (Q9H2G2 whole entry): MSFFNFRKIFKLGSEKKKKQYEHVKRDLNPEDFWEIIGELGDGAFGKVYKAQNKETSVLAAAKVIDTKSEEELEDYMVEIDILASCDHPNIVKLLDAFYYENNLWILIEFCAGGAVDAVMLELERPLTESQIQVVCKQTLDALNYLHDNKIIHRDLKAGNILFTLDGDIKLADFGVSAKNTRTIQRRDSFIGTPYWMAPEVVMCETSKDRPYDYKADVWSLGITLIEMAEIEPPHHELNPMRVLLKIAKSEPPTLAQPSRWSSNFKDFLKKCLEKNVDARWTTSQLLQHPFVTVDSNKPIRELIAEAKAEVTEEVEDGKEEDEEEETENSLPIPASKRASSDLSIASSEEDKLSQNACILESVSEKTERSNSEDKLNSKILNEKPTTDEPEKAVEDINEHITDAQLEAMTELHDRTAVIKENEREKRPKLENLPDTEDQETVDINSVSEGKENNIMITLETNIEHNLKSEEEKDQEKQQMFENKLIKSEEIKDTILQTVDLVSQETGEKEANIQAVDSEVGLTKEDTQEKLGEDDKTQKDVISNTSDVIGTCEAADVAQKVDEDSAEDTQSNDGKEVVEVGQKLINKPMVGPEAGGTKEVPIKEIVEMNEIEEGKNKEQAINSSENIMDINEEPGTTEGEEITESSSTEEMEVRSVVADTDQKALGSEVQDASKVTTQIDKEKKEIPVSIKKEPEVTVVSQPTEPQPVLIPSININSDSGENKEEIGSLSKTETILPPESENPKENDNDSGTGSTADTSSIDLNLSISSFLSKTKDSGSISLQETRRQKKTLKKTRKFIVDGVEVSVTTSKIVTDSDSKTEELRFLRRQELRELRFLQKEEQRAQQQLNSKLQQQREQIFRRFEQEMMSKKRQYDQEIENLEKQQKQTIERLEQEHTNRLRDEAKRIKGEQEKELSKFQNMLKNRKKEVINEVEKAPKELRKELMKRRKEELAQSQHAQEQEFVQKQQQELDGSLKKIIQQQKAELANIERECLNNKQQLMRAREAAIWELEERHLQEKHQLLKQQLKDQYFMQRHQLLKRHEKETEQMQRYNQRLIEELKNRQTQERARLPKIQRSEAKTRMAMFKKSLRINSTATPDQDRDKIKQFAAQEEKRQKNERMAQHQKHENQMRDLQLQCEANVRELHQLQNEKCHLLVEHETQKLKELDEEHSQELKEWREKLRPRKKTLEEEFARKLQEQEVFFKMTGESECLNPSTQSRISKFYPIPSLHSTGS
Experimental: as §1

STK25(h) = target: T40, STK25(h) (Homo sapiens, UniProt O00506)
T40 construct: purchased Eurofins Cerep SA (KinaseProfiler)
Experimental: as §1

WNK4(h) = target: T41, WNK4(h) (Homo sapiens, UniProt Q96J92)
T41 construct: purchased Eurofins Cerep SA (KinaseProfiler)
Experimental: as §1

CN(C)Cc1cccc(Nc2ncc(Cl)c(-c3csc(C(=O)NN4CCOCC4)c3)n2)c1 [SKLB-D18, 4-(5-chloro-2-((3-((dimethylamino)methyl)phenyl)amino)pyrimidin-4-yl)-N-morpholinothiophene-2-carboxamide]
inhibition at 1 µM (ALK1(h)): 20% | inhibition at 1 µM (B-Raf(h)): 59% | inhibition at 1 µM (Blk(h)): -5% | inhibition at 1 µM (CDK1/cyclinB(h)): 44% | inhibition at 1 µM (CDK2/cyclinE(h)): 48% | inhibition at 1 µM (CDKL1(h)): 48% | inhibition at 1 µM (CRIK(h)): 19% | inhibition at 1 µM (CaMKK2(h)): 21% | inhibition at 1 µM (DCAMKL2(h)): 55% | inhibition at 1 µM (DRAK2(h)): 29% | inhibition at 1 µM (ErbB2(h)): -3% | inhibition at 1 µM (FAK(h)): 17% | inhibition at 1 µM (FGFR3(h)): 55% | inhibition at 1 µM (Fgr(h)): 42% | inhibition at 1 µM (GCK(h)): 57% | inhibition at 1 µM (GRK2(h)): 3% | inhibition at 1 µM (GSK3α(h)): 58% | inhibition at 1 µM (HIPK1(h)): 68% | inhibition at 1 µM (Hck(h) activated): 32% | inhibition at 1 µM (IGF-1R(h)): 7% | inhibition at 1 µM (IGF-1R(h), activated): 0% | inhibition at 1 µM (IKKε(h)): 64% | inhibition at 1 µM (IRE1(h)): 2% | inhibition at 1 µM (IRR(h)): 57% | inhibition at 1 µM (LATS2(h)): 37% | inhibition at 1 µM (LIMK1(h)): 20% | inhibition at 1 µM (MAPKAP-K3(h)): -10% | inhibition at 1 µM (MEK2(h)): 59% | inhibition at 1 µM (MLK4(h)): 24% | inhibition at 1 µM (MRCKα(h)): 2% | inhibition at 1 µM [1]: -2% | inhibition at 1 µM (PKCβI(h)): 12% | inhibition at 1 µM (PKCι(h)): 8% | inhibition at 1 µM (PhKγ2(h)): 19% | inhibition at 1 µM (Pim-3(h)): 33% | inhibition at 1 µM (Ros(h)): -4% | inhibition at 1 µM (SAPK2b(h)): 4% | inhibition at 1 µM (SGK3(h)): 9% | inhibition at 1 µM (SLK(h)): 4% | inhibition at 1 µM (STK25(h)): 7% | inhibition at 1 µM (WNK4(h)): 18%

Reference: publication PMC11842588, “A first-in-class selective inhibitor of ERK1/2 and ERK5 overcomes drug resistance with a single-molecule strategy” (Signal Transduction and Targeted Therapy, 2025)
